According to patent publication US9815796B2 (Merck Sharp & Dohme Corp., priority 2013, dated 2017):
Read-outs that look alike come from different tables or passages of the source.

Target: Rhesus PDE2A3 (Macaca mulatta, UniProt B3VTJ2)
Assay: PDE2 fluorescence polarization (IMAP FP) inhibition assay, rhesus enzyme
Assay type: biochemical, rhesus macaque
Summary of the method: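 IMAP FP (mP from parallel and perpendicular fluorescence against substrate-only control) was read ≥1 h after adding binding reagent. The preceding 60 min room-temperature reaction contained FAM-cAMP (50 nM) and cGMP (1 uM) in pH 7.2 Tris buffer with MgCl2 and DTT. Enzyme was supernatant of sonicated AD293 cells expressing rhesus PDE2A3; compounds were 3-fold titrated, DMSO 1% final.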

[1] = Rhesus PDE2, Lab A, read-out: Rhesus PDE2 Ki (nM) - Lab A
[2] = Rhesus PDE2, Lab B, read-out: Rhesus PDE2 Ki (nM) - Lab B

Sequence of Rhesus PDE2A3 (B3VTJ2 1-941): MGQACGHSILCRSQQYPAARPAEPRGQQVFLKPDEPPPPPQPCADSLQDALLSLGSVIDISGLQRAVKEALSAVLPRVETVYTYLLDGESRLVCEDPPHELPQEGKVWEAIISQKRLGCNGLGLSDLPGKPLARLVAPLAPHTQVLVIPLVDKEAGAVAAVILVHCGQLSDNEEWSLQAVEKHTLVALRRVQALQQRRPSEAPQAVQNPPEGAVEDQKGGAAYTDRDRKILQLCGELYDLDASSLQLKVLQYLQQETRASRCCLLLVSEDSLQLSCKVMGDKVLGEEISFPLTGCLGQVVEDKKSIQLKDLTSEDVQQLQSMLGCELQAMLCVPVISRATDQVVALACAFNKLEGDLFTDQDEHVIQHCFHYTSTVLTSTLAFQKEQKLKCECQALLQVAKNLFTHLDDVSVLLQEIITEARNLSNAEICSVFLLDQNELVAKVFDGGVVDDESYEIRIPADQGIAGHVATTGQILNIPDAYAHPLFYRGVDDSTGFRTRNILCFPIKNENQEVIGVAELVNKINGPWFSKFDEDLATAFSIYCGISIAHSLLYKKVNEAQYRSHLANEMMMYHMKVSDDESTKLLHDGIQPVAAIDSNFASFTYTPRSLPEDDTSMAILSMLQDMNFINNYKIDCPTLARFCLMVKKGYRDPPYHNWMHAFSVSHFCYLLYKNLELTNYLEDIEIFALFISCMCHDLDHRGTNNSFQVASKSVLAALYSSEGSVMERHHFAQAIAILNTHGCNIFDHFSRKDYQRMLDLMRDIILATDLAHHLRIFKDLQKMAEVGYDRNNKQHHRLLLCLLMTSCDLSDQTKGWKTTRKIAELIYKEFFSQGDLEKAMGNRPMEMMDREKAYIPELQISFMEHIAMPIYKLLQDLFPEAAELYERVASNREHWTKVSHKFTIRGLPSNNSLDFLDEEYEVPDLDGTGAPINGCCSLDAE

SMILES | Ki [1] | Ki [2] | inhibition at 1 µM (Rhesus PDE2, Lab A, at 1 uM, read-out: Rhesus PDE2 % inh. at 1 uM - Lab A)
COc1ccc([C@@H](C)NC(=O)c2cc(=O)[nH]c(-c3ncccn3)n2)c(OC)c1 [Example 88, N-[(1R)-1-(2,4-dimethoxyphenyl)ethyl]-6-oxo-1,6-dihydro-2,2′-bipyrimidine-4-carboxamide] | 2360 nM |  | 
COc1ccc(C(NC(=O)c2cc(=O)[nH]c(-c3ncccn3)n2)c2ccc(C(F)(F)F)cc2)cc1 (stereo not drawn) [Example 87, N-{(4-methoxyphenyl)[4-(trifluoromethyl)phenyl]methyl}-6-oxo-1,6-dihydro-2,2′-bipyrimidine-4-carboxamide] | 1920 nM |  | 
O=C(NC1(c2ccccc2OC(F)(F)F)CCC1)c1cc(=O)[nH]c(-c2ccccc2)n1 [Example 411, 6-oxo-2-phenyl-N-{1-[2-(trifluoromethoxy)phenyl]cyclobutyl}-1,6-dihydropyrimidine-4-carboxamide] |  | 1460 nM | 
CC(C)(C)c1ccc(CCNC(=O)c2cc(=O)[nH]c(-c3ccccc3)n2)cc1 [Example 375, N-[2-(4-tert-butylphenyl)ethyl]-6-oxo-2-phenyl-1,6-dihydropyrimidine-4-carboxamide] | 1000 nM | 2040 nM | 46%
COc1ccc(C(C)(C)c2nc(C(=O)N[C@@H](c3ccc(SC(F)(F)F)cc3)C(C)(C)C)cc(=O)[nH]2)cc1 [Example 488, N-[(1R)-2,2-dimethyl-1-{4-[(trifluoromethyl)sulfanyl]phenyl}propyl]-2-[1-(4-methoxyphenyl)-1-methylethyl]-6-oxo-1,6-dihydropyrimidine-4-carboxamide] |  | 116 nM | 
Cc1nc(C(=O)NC(C)c2cccc(-c3ccc(F)cc3)c2)cc(=O)[nH]1 (stereo not drawn) [Example 267, N-[1-(4′-fluorobiphenyl-3-yl)ethyl]-2-methyl-6-oxo-1,6-dihydropyrimidine-4-carboxamide] | 8060 nM |  | 
COc1ccc(C(C)(C)c2nc(C(=O)N[C@@H](c3ccc(C(F)(F)F)c(F)c3)C3CC3)cc(=O)[nH]2)cc1 [Example 499, N-{(R)-cyclopropyl[3-fluoro-4-(trifluoromethyl)phenyl]methyl}-2-[1-(4-methoxyphenyl)-1-methylethyl]-6-oxo-1,6-dihydropyrimidine-4-carboxamide] |  | 115 nM | 
CC(C)(NC(=O)c1cc(=O)[nH]c(-c2ncccn2)n1)c1ccc(OC(F)(F)F)cc1 [Example 289, N-{1-methyl-1-[4-(trifluoromethoxy)phenyl]ethyl}-6-oxo-1,6-dihydro-2,2′-bipyrimidine-4-carboxamide] | 2320 nM |  | 
Cc1nc(C(=O)NC(CO)c2ccc(C(F)(F)F)cc2)cc(=O)[nH]1 (single isomer, unassigned) [Example 311, (S)- or (R)-N-{2-hydroxy-1-[4-(trifluoromethyl)phenyl]ethyl}-2-methyl-6-oxo-1,6-dihydropyrimidine-4-carboxamide] | 9120 nM |  | 
CC(C)(NC(=O)c1cc(=O)[nH]c(-c2ccccc2)n1)c1ccccc1 [Example 390, N-(1-methyl-1-phenylethyl)-6-oxo-2-phenyl-1,6-dihydropyrimidine-4-carboxamide] |  | 1700 nM | 
Cc1nc(C(=O)N[C@H](c2ccc(C(F)(F)F)cc2)C(C)C)cc(=O)[nH]1 [Example 315, 2-methyl-N-{(1S)-2-methyl-1-[4-(trifluoromethyl)phenyl]propyl}-6-oxo-1,6-dihydropyrimidine-4-carboxamide] | 698 nM |  | 
Cc1nc(C(=O)N[C@H](C)c2cccc(C(F)(F)F)c2)cc(=O)[nH]1 [Example 271, 2-methyl-6-oxo-N-{(1R)-1-[3-(trifluoromethyl)phenyl]ethyl}-1,6-dihydropyrimidine-4-carboxamide] | 2960 nM |  | 
C[C@H](NC(=O)c1cc(=O)[nH]c(-c2ccccc2)n1)c1ccc([N+](=O)[O-])cc1 [Example 458, N-[(1S)-1-(4-nitrophenyl)ethyl]-6-oxo-2-phenyl-1,6-dihydropyrimidine-4-carboxamide] |  | 8130 nM | 
CC(NC(=O)c1cc(=O)[nH]c(C2CC2)n1)c1ccccc1C(F)(F)F (stereo not drawn) [Example 220, 2-cyclopropyl-6-oxo-N-{1-[2-(trifluoromethyl)phenyl]ethyl}-1,6-dihydropyrimidine-4-carboxamide] | 10700 nM |  | 
C[C@H](c1ccc(C(F)(F)F)cc1)N(C)C(=O)c1cc(=O)[nH]c(C2CC2)n1 [Example 209] | 17400 nM |  | 
COc1cc(C(F)(F)F)ccc1[C@H](C)NC(=O)c1cc(=O)[nH]c(-c2ccccc2)n1 [Example 403, N-{(1S)-1-[2-methoxy-4-(trifluoromethyl)phenyl]ethyl}-6-oxo-2-phenyl-1,6-dihydropyrimidine-4-carboxamide] |  | 1910 nM | 
COc1cc(C(F)(F)F)ccc1[C@H](C)NC(=O)c1cc(=O)[nH]c(C2CC2)n1 [Example 223, 2-cyclopropyl-N-{(1S)-1-[2-methoxy-4-(trifluoromethyl)phenyl]ethyl}-6-oxo-1,6-dihydropyrimidine-4-carboxamide] | 1020 nM |  | 
COc1cc(CN(C)C(=O)c2cc(=O)[nH]c(C)n2)cc(OC)c1OC [Example 14, N,2-dimethyl-6-oxo-N-(3,4,5-trimethoxybenzyl)-1,6-dihydropyrimidine-4-carboxamide] | 1860 nM |  | 
CC1(C(NC(=O)c2cc(=O)[nH]c(-c3ccccc3)n2)c2ccc(SC(F)(F)F)c(F)c2)CC1 (single isomer, unassigned) [Example 706, (S)- or (R)-N-((3-fluoro-4-((trifluoromethyl)thio)phenyl)(1-methylcyclopropyl)methyl)-6-oxo-2-phenyl-1,6-dihydropyrimidine-4-carboxamide] |  | > 2970 nM | 
O=C(N[C@@H]1CCCc2cc(C(F)(F)F)ccc21)c1cc(=O)[nH]c(-c2ncccn2)n1 [Example 433, 6-oxo-N-[(1R)-6-(trifluoromethyl)-1,2,3,4-tetrahydronaphthalen-1-yl]-1,6-dihydro-2,2′-bipyrimidine-4-carboxamide] |  | ~1430 nM | 
Cc1nc(C(=O)NC(c2ccc(SC(F)(F)F)cc2)C(C)C)cc(=O)[nH]1 (stereo in doubt) [Example 615, 2-methyl-N-[(1S)-2-methyl-1-{4-[(trifluoromethyl)sulfanyl]phenyl}propyl]-6-oxo-1,6-dihydropyrimidine-4-carboxamide] |  | 441 nM | 
Cc1ccc([C@H](C)NC(=O)c2cc(=O)[nH]c(-c3ccccc3)n2)cc1 [Example 364, N-[(1S)-1-(4-methylphenyl)ethyl]-6-oxo-2-phenyl-1,6-dihydropyrimidine-4-carboxamide] |  | 3950 nM | 
CC(NC(=O)c1cc(=O)[nH]c(C2CC2)n1)c1ncc(C(F)(F)F)cn1 (stereo not drawn) [Example 203, 2-cyclopropyl-6-oxo-N-{1-[5-(trifluoromethyl)pyrimidin-2-yl]ethyl}-1,6-dihydropyrimidine-4-carboxamide] | 4320 nM |  | 
O=C(NC(c1ccccc1)c1ccc(C(F)(F)F)cc1)c1cc(=O)[nH]c(-c2ncccn2)n1 (stereo not drawn) [Example 78, 6-oxo-N-{phenyl[4-(trifluoromethyl)phenyl]methyl}-1,6-dihydro-2,2′-bipyrimidine-4-carboxamide] | 1080 nM |  | 

Next, values leading:

Ki [1] | Ki [2] | inhibition at 1 µM (Rhesus PDE2, Lab A, at 1 uM, read-out: Rhesus PDE2 % inh. at 1 uM - Lab A) | SMILES
334 nM | 533 nM |  | CC(NC(=O)c1cc(=O)[nH]c(-c2ccccc2)n1)c1ccc(C#N)cc1 (stereo not drawn) [Example 370, N-[1-(4-cyanophenyl)ethyl]-6-oxo-2-phenyl-1,6-dihydropyrimidine-4-carboxamide]
304 nM |  |  | Cc1nc(C(=O)N[C@H](C)c2ccc(S(=O)(=O)C(F)(F)F)cc2)cc(=O)[nH]1 [Example 331, 2-Methyl-6-oxo-N-[(1R)-1-{4-[(trifluoromethyl)sulfonyl]phenyl}ethyl]-1,6-dihydropyrimidine-4-carboxamide]
~417 nM | 653 nM |  | C[C@@H](NC(=O)c1cc(=O)[nH]c(-c2ccccc2)n1)c1ccc(O)cc1 [Example 339, N-[(1R)-1-(4-hydroxyphenyl)ethyl]-6-oxo-2-phenyl-1,6-dihydropyrimidine-4-carboxamide]
342 nM |  |  | COc1cc(C(F)(F)F)ccc1[C@@H](C)NC(=O)c1cc(=O)[nH]c(-c2ncccn2)n1 [Example 109, N-{(1R)-1-[2-methoxy-4-(trifluoromethyl)phenyl]ethyl}-6-oxo-1,6-dihydro-2,2′-bipyrimidine-4-carboxamide]
~449 nM | 681 nM |  | CC(C)(NC(=O)c1cc(=O)[nH]c(-c2ccccc2)n1)c1ccc(F)c(F)c1 [Example 344, N-[1-(3,4-difluorophenyl)-1-methylethyl]-6-oxo-2-phenyl-1,6-dihydropyrimidine-4-carboxamide]
73 nM | 189 nM |  | Cc1nc(C(=O)N[C@H](C)c2ccc(-c3ccc(C(F)(F)F)cc3)cc2)cc(=O)[nH]1 [Example 318, 2-methyl-6-oxo-N-{(1R)-1-[4′-(trifluoromethyl)biphenyl-4-yl]ethyl}-1,6-dihydropyrimidine-4-carboxamide]
21 nM |  |  | C[C@@H](NC(=O)c1cc(=O)[nH]c(-c2ncccn2)n1)c1ccc(CC(F)(F)F)cc1 [Example 107, 6-oxo-N-{(1R)-1-[4-(2,2,2-trifluoroethyl)phenyl]ethyl}-1,6-dihydro-2,2′-bipyrimidine-4-carboxamide]
~672 nM | 891 nM |  | CC(NC(=O)c1cc(=O)[nH]c(-c2ccccc2)n1)c1ccc2c(c1)OCO2 (stereo not drawn) [Example 376, N-[1-(1,3-benzodioxol-5-yl)ethyl]-6-oxo-2-phenyl-1,6-dihydropyrimidine-4-carboxamide]
~525 nM | 713 nM |  | CC(C)(NC(=O)c1cc(=O)[nH]c(-c2ccccc2)n1)c1ccc(F)cc1 [Example 349, N-[1-(4-fluorophenyl)-1-methylethyl]-6-oxo-2-phenyl-1,6-dihydropyrimidine-4-carboxamide]
1.5 nM |  |  | CC(C)[C@@H](NC(=O)c1cc(=O)[nH]c(-c2ncccn2)n1)c1ccc(SC(F)(F)F)cc1 [Example 97, N-[(1R)-2-methyl-1-{4-[(trifluoromethyl)sulfanyl]phenyl}propyl]-6-oxo-1,6-dihydro-2,2′-bipyrimidine-4-carboxamide]
